# Measured values taken from patent publication EP4813990A1, “COMPOUND FOR TREATING CANCER” (INNOLAKE BIOPHARMA (HANGZHOU) CO., LTD., priority 2023, dated 2025).
# Values joined by “and” are separate entries in the source; they are usually repeats but may differ in a detail not shown here. Identical values can stand only once.
# Legend:
# [1] = tested on: CYP3A, CYP2B6, CYP2C8, CYP2C9, CYP1A2, CYP2C19 and CYP2D6; experiment: Metabolic enzyme phenotyping for production of metabolite M4; assay type: in vitro ADME
# A1 receptor = A1 receptor (Homo sapiens, UniProt P30542); experiment: Adenosine receptor selectivity, A2aR compared with A1; assay type: binding
# Description: Meanwhile, ILB-2109 had high selectivity for A2aR (compared with A1, A2b and A3 receptors, the selectivity was 18.9 times, 40.7 times and 3424.7 times respectively).
# Plasma protein binding [2] = assay type: in vitro ADME; settings: one range given for CD-1 mice, Sprague-Dawley rats, Beagle dogs and cynomolgus monkeys
# [3] = tested on: MC38 mouse colon cancer xenograft; experiment: MC38 mouse colon cancer xenograft model, single agent and combination with anti-CTLA-4 antibody; assay type: in vivo, C57BL/6 mice; settings: for Tumor Volume (mm^3) (Day 9): Day 9 after inoculation; for Tumor Volume (mm^3) (Day 9) / Tumor Volume (mm^3) / Tumor Volume (mm^3) (Day 15) / Tumor Weight / Tumor Volume (mm^3) (Day 12): Mean ± SEM; for Tumor Volume (mm^3) (Day 9) / Tumor Volume (mm^3) / Tumor Volume (mm^3) (Day 15) / Number of Animals with Tumor Volume > 250mm^3 / T/C (%) (Day 21) / Tumor Volume (mm^3) (Day 12) / TGI (%) (Day 21): n=8; for Tumor Volume (mm^3) (Day 15): Day 15 after inoculation; for Number of Animals with Tumor Volume > 250mm^3 / T/C (%) (Day 21) / TGI (%) (Day 21): Day 21; for Tumor Weight: end of experiment (D23); for Tumor Volume (mm^3) (Day 12): head prints Day 12; for TGI (%) (Day 21): tumor volume based; for TGITW (%): tumor weight based
# Description: A total of 6 groups were set up in the experiment: vehicle control group, ILB-2109 low-dose and high-dose single-agent groups, Anti-CTLA-4 antibody single-agent group, and two dose groups of ILB-2109 and Anti-CTLA-4 in combination. Table 1. Experimental Administration Dosage and Grouping
# Anti-CTLA-4 antibody was aseptically diluted to 0.5 mg/mL with DPBS and prepared immediately before administration.
# ILB-2109 was formulated to 10 mg/mL with vehicle, 1% tween80 + 9% PEG400 + 90% ddwater. Specific preparation method: Prepare Vehicle 1 (10 mL Tween80, 90 mL PEG400, 900 mL ddwater), weigh 1120 mg of ILB-2109 and add into 112 mL of Vehicle 1, grind to basically uniform, then ultrasonicate for about 2-3 minutes to obtain a homogeneous suspension. An appropriate amount of the solution was diluted to 5 mg/mL with Vehicle 1 (1% Tween80 + 9% PEG400 + 90% ddwater) at a ratio of 1:1. The prepared solution was aliquoted into 5 mL EP tubes with 4 mL per tube and stored at 4°C. Prepared once a week.
# 48 female C57BL/6 mice were inoculated subaxillarily with 0.1 mL DPBS containing 2×10^5 MC38 cells. On the day of inoculation, mice were randomly divided into vehicle control group, ILB-2109 low-dose group and ILB-2109 high-dose group according to body weight, with 16 animals in each group. The day of inoculation was defined as D1. On D9 after inoculation, the average tumor volume of the vehicle control group reached about 64 mm^3. According to animal tumor volume and body weight, the original vehicle control group was divided into vehicle control group and Anti-CTLA-4 antibody single-agent group; the original ILB-2109 low-dose group was divided into ILB-2109 low-dose single-agent group and the combination group of low-dose ILB-2109 and anti-CTLA-4 antibody; the original ILB-2109 high-dose group was divided into ILB-2109 high-dose single-agent group and the combination group of high-dose ILB-2109 and Anti-CTLA-4 antibody. Administration was carried out for each group on the day of regrouping according to the set dosage.
# Tumor volume was measured and body weight was weighed 3 times a week.
# All animals were euthanized on D23 after inoculation, and tumor samples were collected and weighed.
# Tumor volume was measured 3 times a week, and tumor growth inhibition TGITV (%) was calculated. The calculation formula of Tumor Volume (TV) is: TV = 1/2 × a × b^2 [formula] where a and b represent the major diameter and minor diameter of the tumor mass respectively. [formula]
# Tumor weight of animals was measured during sample collection. The tumor growth inhibition was calculated according to the following formula: Tumor Growth Inhibition based on Tumor Weight TGITW(%) = (TWc−TWt)/TWc × 100% [formula] where TWt is the mean tumor weight of the treatment group, and TWc is the mean tumor weight of the vehicle control group.
# All data were expressed as Mean ± SEM.
# In this experiment, data on D21 after inoculation were used for statistical analysis by PRISM software. T test was used for comparison between two groups, and one-way ANOVA was used for comparison among three or more groups.
# Plasma protein binding [4] = assay type: in vitro ADME; settings: one range given for CD-1 mice, Sprague-Dawley rats, Beagle dogs and cynomolgus monkeys; remark: listed apart in the source
# CYP1A2 = experiment: In vitro hepatocyte induction assay; assay type: in vitro ADME
# Description: (§1) In vitro hepatocyte induction assay was used to evaluate the effect of ILB-2109 on the enzyme activity and gene expression level of cytochrome P450 isoenzymes CYP1A2, CYP2B6 and CYP3A4.
# CYP3A4 = experiment: In vitro hepatocyte induction assay; assay type: in vitro ADME; settings: for induction, gene expression level: hepatocytes
# Description: as §1
# CYP2B6 = experiment: In vitro hepatocyte induction assay; assay type: in vitro ADME
# Description: as §1
# Caco-2 cells = experiment: Caco-2 permeability; assay type: in vitro ADME
# [5] = ILB-2109 100 mg/kg gavage twice a day
# [6] = ILB-2109 50 mg/kg gavage twice a day
# [7] = hepatocytes, 0.200, 2.00 or 20.0 µM
# Chain of A1 receptor (P30542 whole entry): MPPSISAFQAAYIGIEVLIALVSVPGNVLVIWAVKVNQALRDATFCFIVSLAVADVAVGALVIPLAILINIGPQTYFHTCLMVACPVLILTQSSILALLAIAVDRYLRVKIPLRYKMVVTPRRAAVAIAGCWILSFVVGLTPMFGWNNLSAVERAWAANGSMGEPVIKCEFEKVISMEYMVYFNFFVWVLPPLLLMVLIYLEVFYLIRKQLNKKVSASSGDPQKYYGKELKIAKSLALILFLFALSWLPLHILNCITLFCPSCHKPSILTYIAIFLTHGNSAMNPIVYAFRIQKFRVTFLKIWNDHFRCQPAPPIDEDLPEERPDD
smiles,measurement,setting,value
Cc1cc(-c2c(-c3ccccc3)nc(N)n3nc(CO)nc23)cc(C(F)(F)F)n1 [ILB-2109],"role of CYP2B6, CYP2C8 and CYP2C9 in production of metabolite M4",[1],may play a secondary role
same,"role of other isoenzymes (CYP1A2, CYP2C19 and CYP2D6) in production of metabolite M4",[1],little or no effect
same,selectivity for A2aR compared with A1 receptor,A1 receptor,18.9 times
same,binding rate in plasma,Plasma protein binding [2],87.3%-95.0%
same,Tumor Volume (mm^3) (Day 9),"[3]; ILB-2109 50 mg/kg gavage twice a day, 50 mg/kg",63±6 mm^3 and 63.65±6 mm^3
same,Tumor Volume (mm^3) (Day 9),[3]; [5],58±4 mm^3
same,Tumor Volume (mm^3),"[3]; Day 11 after inoculation, ILB-2109 50 mg/kg gavage twice a day",115±13 mm^3
same,Tumor Volume (mm^3),"[3]; Day 11 after inoculation, ILB-2109 100 mg/kg gavage twice a day",78±8 mm^3
same,Tumor Volume (mm^3),"[3]; Day 13 after inoculation, ILB-2109 50 mg/kg gavage twice a day",143±20 mm^3
same,Tumor Volume (mm^3),"[3]; Day 13 after inoculation, ILB-2109 100 mg/kg gavage twice a day",105±11 mm^3
same,Tumor Volume (mm^3) (Day 15),[3]; [6],225±34 mm^3
same,Tumor Volume (mm^3) (Day 15),"[3]; ILB-2109 100 mg/kg gavage twice a day, 100 mg/kg",257±18 mm^3 and 157±18 mm^3
same,Tumor Volume (mm^3),"[3]; Day 17 after inoculation, ILB-2109 50 mg/kg gavage twice a day",269±41 mm^3
same,Tumor Volume (mm^3),"[3]; Day 17 after inoculation, ILB-2109 100 mg/kg gavage twice a day",207±25 mm^3
same,Number of Animals with Tumor Volume > 250mm^3,[3]; [6],8/8
same,T/C (%) (Day 21),[3]; [6],70.61%
same,Number of Animals with Tumor Volume > 250mm^3,[3]; [5],5/8
same,T/C (%) (Day 21),[3]; [5],52.76%
same,Tumor Volume (mm^3),"[3]; Day 21 after inoculation, ILB-2109 50 mg/kg gavage twice a day",494±87 mm^3
same,Tumor Volume (mm^3),"[3]; Day 21 after inoculation, ILB-2109 100 mg/kg gavage twice a day",369±54 mm^3
same,Tumor Weight,[3]; [6],1.7030 ± 0.1419 g
same,Tumor Weight,[3]; [5],0.6318 ± 0.1355 g
same,Tumor Volume (mm^3) (Day 12),[3]; [6],494±87 mm^3
same,Tumor Volume (mm^3) (Day 12),[3]; [5],369±54 mm^3
same,TGI (%) (Day 21),[3]; [6],29.39%
same,TGI (%) (Day 21),[3]; [5],47.24%
same,TGITW (%),[3]; [6],31%
same,TGITW (%),[3]; [5],38%
same,binding rate in plasma,Plasma protein binding [4],87.3%-95.0%
same,"induction, gene expression level","CYP1A2; hepatocytes, 20.0 µM, Donor 1",inducer
same,"induction, enzyme activity",CYP1A2; [7],not an inducer
same,"induction, gene expression level","CYP3A4; 2.00 µM, Donor 1 and Donor 3",inducer
same,"induction, gene expression level","CYP3A4; 20.0 µM, Donor 1, 2 and 3",inducer
same,"induction, enzyme activity",CYP3A4; [7],not an inducer
same,"induction, gene expression level","CYP2B6; hepatocytes, 20.0 µM, Donor 1",inducer
same,"induction, enzyme activity",CYP2B6; [7],not an inducer
same,efflux transporter substrate,Caco-2 cells; Caco-2 cells,most likely a substrate of efflux transporters
same,permeability in Caco-2 cells,Caco-2 cells; according to existing classification standards,high permeability
